Target: T1, GajA (Bacillus cereus, UniProt J8H9C1)
T1 construct: full length residues 1-578, N-terminal 6xHis tag kept (pET28a, NdeI/NotI), expressed in E. coli BL21(DE3), 69 kDa with tag; without GajB
Test: inhibition of lambda955 DNA cleavage, agarose gel densitometry
Format: biochemical
Conditions: 20 nM lambda955 DNA, 200 nM enzyme, 20 mM Tris-HCl pH 9, 1 mM MgCl2, 37 °C, 5 min; allosteric, ATPase-like domain

T1 sequence (J8H9C1 whole entry, the tested form may be a part): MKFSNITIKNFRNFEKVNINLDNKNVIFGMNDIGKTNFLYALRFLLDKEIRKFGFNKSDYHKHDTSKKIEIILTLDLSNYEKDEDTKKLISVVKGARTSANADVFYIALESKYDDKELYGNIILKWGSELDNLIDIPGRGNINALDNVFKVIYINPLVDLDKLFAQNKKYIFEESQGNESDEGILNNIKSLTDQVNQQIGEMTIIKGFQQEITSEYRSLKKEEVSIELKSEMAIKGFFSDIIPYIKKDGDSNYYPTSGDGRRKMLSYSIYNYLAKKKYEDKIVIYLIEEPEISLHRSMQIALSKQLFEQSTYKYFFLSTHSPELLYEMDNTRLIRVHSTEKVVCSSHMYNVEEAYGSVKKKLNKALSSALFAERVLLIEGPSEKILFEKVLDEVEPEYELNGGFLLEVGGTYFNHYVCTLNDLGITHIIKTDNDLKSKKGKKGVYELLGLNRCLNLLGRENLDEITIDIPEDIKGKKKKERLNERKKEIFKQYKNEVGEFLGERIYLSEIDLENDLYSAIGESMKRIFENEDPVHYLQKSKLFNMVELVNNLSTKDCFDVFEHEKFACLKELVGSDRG

`Nc1ncnc2c1ncn2[C@@H]1O[C@H](COP(=O)(O)OP(=O)(O)O)[C@@H](O)[C@H]1O` [ADP] was tested, and the inhibition was “strongly inhibited by all NTP and dNTP, even ADP, while AMP had no significant effect”.
